In patent US10662060B2, “Manufacture of lipid-based nanoparticles using a dual asymmetric centrifuge” (priority 2004, dated 2020):

Key:
[1] = Inclusion efficiency for gemcitabine in VPG; type: physicochemical; details: for Inclusion efficiency: then passive loading 60° C. 2 hours
Description: (§1) Within the context of the present invention, the “enclosure efficiency” is the ratio (percentage) of the amount of the measured substance (e.g., of an active substance) which is included in the lipid-based nanoparticles, associated to the nanoparticles or incorporated into the nanoparticles, to the total amount of the respective substance used for the formulation.
Into a 25 ml injection bottle (outer diameter: 36 mm), 1.48 g of the mixture of hydrogenated egg phosphatidylcholine and cholesterol (55/45 mole %) existing as a solid solution as well as 3 g of glass beads (diameter 1 mm) was weighed under sterile conditions. The bottle was flange-sealed. Through the septum, 500 μl of a Gemzar® solution (containing 38.02 mg of gemcitabine/ml; Gemzar® is the name of the gemcitabine-containing medicament of the company Lilly, one injection bottle contains 200 mg of gemcitabine (lyophilized) and is reconstituted with 5 ml of 0.9% NaCl) as well as 2.22 g of 5% mannitol solution was added. The mixture was subjected to speed mixing at 3540 rpm for 20 minutes to form gemcitabine-containing VPG.
Into a 25 ml injection bottle, 3.7 g of VPG (660 mM lipid, mixture of hydrogenated egg phosphatidylcholine and cholesterol (55/45 mole %), existing as a solid solution) was charged, and the bottle was centrifuged briefly, so that a uniformly thick layer of VPG formed at the bottom of the vessel. To this layer, 500 μl of a Gemzar® solution was added (contains 38.02 mg of gemcitabine/ml; Gemzar® is the name of the gemcitabine-containing medicament of the company Lilly, one injection bottle contains 200 mg of gemcitabine (lyophilized) and is reconstituted with 5.0 ml of 0.9% NaCl). […]
Subsequently, the VPG-gemcitabine mixture as well as a comparative sample in which gemcitabine was incorporated into the VPG by two shaking steps for 10 and 5 minutes, respectively, with an incubation break for 1 hour between, incubated at 60° C. for 2 hours for passive loading, the VPG was subsequently redispersed, and the inclusion efficiency for gemcitabine was determined.

[2] = empty VPG by high-pressure homogenization, gemcitabine incorporated by passive loading (EP 1 087 752); cited from earlier work
[3] = Inclusion efficiency for RNA-Cy3 in liposomes (fluorescence spectroscopy of supernatant); type: physicochemical; details: 1 μM RNA-Cy3, 3540 rpm 10 min
Description: as §1
Into two glass vials (diameter 10 mm), 100 mg each of glass beads (diameter 1 mm) and 50 mg each of the mixture of hydrogenated egg phosphatidylcholine and cholesterol (55/45 mole %) existing as a solid solution was weighed. Into one vial, 75 μl of a 1 μM RNA-Cy3 solution (RNA: 27mer; 5′-GGA GCU CGC U T**C GGC GAG GUC GUG CCA-3′; T**=thymidine-C6-amino-NHS-Cy3; Cy3: fluorescence dye; Qiagen) was pipetted. Into the second vial, 75 μl of NaCl solution was added. The closed vials were subjected to speed mixing at 3540 rpm for 10 minutes each. The liposome gel loaded with RNA-Cy3 solution was redispersed with 250 μl of NaCl solution. […] In the supernatant, the relative concentrations of fluorescence-labeled RNA were subsequently determined by fluorescence spectroscopy (em: 565, ex; 515 nm), and the inclusion efficiency for RNA-Cy3 was calculated by dividing the values by one another (60.1%). The mean size of the redispersed vesicles was determined by means of PCS to be 127.8 nm. […]

[4] = Mean size of liposomes / lipid-based nanoparticles by photon correlation spectroscopy (PCS); type: physicochemical
[5] = Inclusion efficiency for bendamustine in VPG (ion exchanger separation of free drug); type: physicochemical; details: direct inclusion in VPG by speed mixing, 3540 rpm 30 min; ± SD
Description: as §1
Into a 25 ml injection bottle (outer diameter: 36 mm), 1.0 g of the mixture of hydrogenated egg phosphatidylcholine and cholesterol (55/45 mole %) existing as a solid solution as well as 1.0 g of glass beads (diameter 1 mm) was weighed under sterile conditions. The bottle was flange-sealed. Through the septum, 1.5 ml of a Bendamustin® hydrochloride solution (containing 9.09 mg of bendamustine/ml; the solution was prepared by reconstitution from Bendamustin of Ribosepharm; thus, 0.9% NaCl solution was injected into the medicine bottle with the lyophilized medicament) was added. […] Samples of the VPGs containing bendamustine were taken, and the inclusion efficiency for bendamustine was determined to be 40.6±3.08% (SD) (separation of the free bendamustine: by ion exchanger, Moog et al., Cancer Chem Pharmacol 49: 356 (2002), bendamustine analytics: Maas, B. et al., Pharmazie 49: 775-777 (1994)). The mean size of the vesicles was determined by PCS to be 62.5±3.5 nm (SD) (n: 8).

[6] = Inclusion efficiency for trypan blue in liposomes (absorption spectroscopy of supernatant); type: physicochemical; details: EPC3/cholesterol 55/45; 3540 rpm 10 min
Description: Within the context of the present invention, the “enclosure efficiency” is the ratio (percentage) of the amount of the measured substance (e.g., of an active substance) which is included in the lipid-based nanoparticles, associated to the nanoparticles or incorporated into the nanoparticles, to the total amount of the respective substance used for the formulation. Into two glass vials (diameter 10 mm), 100 mg each of glass beads (diameter 1 mm) and 50 mg each of the mixture of hydrogenated egg phosphatidylcholine and cholesterol (55/45 mole %) existing as a solid solution was weighed. Into one vial, 75 μl of a trypan blue solution (1000 μl of commercially available trypan blue solution (0.4%) plus 30 ml of 25% ammonia solution) was pipetted. Into the second vial, 75 μl of 0.9% NaCl solution was added. The closed vials were subjected to speed mixing at 3540 rpm for 10 minutes each. The liposome gel loaded with trypan blue solution was redispersed with 250 μl of NaCl solution. The liposome gel prepared with saline only was redispersed with 175 μl of NaCl solution plus 75 μl of trypan blue solution. […] In the supernatant, the trypan blue concentration was subsequently determined by absorption spectroscopy, and the inclusion efficiency was calculated. […]

Which “inclusion efficiency for gemcitabine” value ([1]; direct inclusion in VPG by speed mixing, 3540 rpm 20 min) does the source give for Nc1ccn([C@@H]2O[C@H](CO)[C@@H](O)C2(F)F)c(=O)n1 [gemcitabine] here?
The value was 80.7%.

And the Inclusion efficiency ([1]; gemcitabine incorporated into prefabricated VPG by shaking (10 and 5 min))?
The Inclusion efficiency was 47%.

What about the Inclusion efficiency ([1]; gemcitabine incorporated into prefabricated VPG by speed mixing (0.5 min)) of the same molecule?
The Inclusion efficiency was 44%.

What about the “inclusion efficiency for passive loading” value [2] of the same molecule?
The value was 43-47%.

Which “inclusion efficiency for RNA-Cy3” value ([3]; negatively charged liposomes (hydrogenated egg PC/cholesterol/DPPG 46/33/20)) does the source give for “RNA-Cy3: fluorescence-labeled RNA 27mer 5′-GGA GCU CGC U T**C GGC GAG GUC GUG CCA-3′, T**=thymidine-C6-amino-NHS-Cy3 (Qiagen) (chain 1 GGAGCUCGCUT; chain 2 CGGCGAGGUCGUGCCA; Cy3 label on thymidine-C6-amino, chemistry not fully specified)” here?
The value was 82.9%.

And the “inclusion efficiency for RNA-Cy3” value ([3]; neutral liposomes (hydrogenated egg PC/cholesterol 55/45))?
Its value is 60.1%.

And the “mean size of the redispersed vesicles” value ([4]; RNA-Cy3-loaded negatively charged liposomes (hydrogenated egg PC/cholesterol/DPPG 46/33/20))?
Its value is 238.1 nm.

And the “mean size of the redispersed vesicles” value ([4]; RNA-Cy3-loaded neutral liposomes (hydrogenated egg PC/cholesterol 55/45))?
The value was 127.8 nm.

With Cn1c(CCCC(=O)O)nc2cc(N(CCCl)CCCl)ccc21 [bendamustine] as the molecule, how does the “inclusion efficiency for bendamustine” value [5] read?
The value was 40.6±3.08%.

With Cc1cc(-c2ccc(/N=N/c3c(S(=O)(=O)O)cc4cc(S(=O)(=O)O)cc(N)c4c3O)c(C)c2)ccc1/N=N/c1c(S(=O)(=O)O)cc2cc(S(=O)(=O)O)cc(N)c2c1O [trypan blue] as the molecule, how does the “inclusion efficiency for trypan blue in liposomes by speed mixing” value [6] read?
The value was 51%.
